The values below come from patent US10934285B2, “Compounds and compositions for inhibiting the activity of SHP2” (Novartis AG, priority 2016, dated 2021).

This experiment addresses SHP2 (Homo sapiens (Human), UniProt Q06124). Description: SHP2 Allosteric Inhibition Assay. The experiment is classed as biochemical. The following applies: 0.5 nM SHP2 activated with 0.5 μM peptide IRS1_pY1172(dPEG8)pY1222; surrogate substrate DiFMUP; prompt fluorescence. The source says: SHP2 Allosteric Inhibition Assay
SHP2 is allosterically activated through binding of bis-tyrosyl-phorphorylated peptides to its Src Homology 2 (SH2) domains. The latter activation step leads to the release of the auto-inhibitory interface of SHP2, which in turn renders the SHP2 protein tyrosine phosphatase (PTP) active and available for substrate recognition and reaction catalysis. The catalytic activity of SHP2 was monitored using the surrogate substrate DiFMUP in a prompt fluorescence assay format.
After 30-60 minutes incubation at 25° C., the surrogate substrate DiFMUP (Invitrogen, cat #D6567) was added to the reaction and incubated at 25° C. for 30 minutes. […] The inhibitor dose response curves were analyzed using normalized IC50 regression curve fitting with control based normalization.

Sequence of SHP2 (Q06124 whole entry): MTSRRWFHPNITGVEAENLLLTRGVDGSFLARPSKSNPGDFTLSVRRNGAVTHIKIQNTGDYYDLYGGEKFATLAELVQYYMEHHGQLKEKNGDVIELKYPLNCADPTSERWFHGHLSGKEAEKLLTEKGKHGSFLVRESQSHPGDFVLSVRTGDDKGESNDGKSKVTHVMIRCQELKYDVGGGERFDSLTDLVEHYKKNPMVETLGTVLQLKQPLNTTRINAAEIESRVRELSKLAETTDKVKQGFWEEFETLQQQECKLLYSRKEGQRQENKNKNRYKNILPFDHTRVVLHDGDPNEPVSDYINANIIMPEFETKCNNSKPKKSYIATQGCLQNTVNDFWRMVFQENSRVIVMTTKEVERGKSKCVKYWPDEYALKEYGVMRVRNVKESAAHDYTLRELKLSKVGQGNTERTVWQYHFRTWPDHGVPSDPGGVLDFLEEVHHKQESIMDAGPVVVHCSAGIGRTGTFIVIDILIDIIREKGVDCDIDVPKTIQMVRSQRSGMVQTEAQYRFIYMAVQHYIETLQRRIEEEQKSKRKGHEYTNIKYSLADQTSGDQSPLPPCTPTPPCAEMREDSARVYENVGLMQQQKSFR

Usually IC50 stands for the midpoint of a concentration-inhibition curve. The low end stands for greater potency, the high end for weaker potency. The compound `O=C(Nc1cccc(Sc2ccc3nc(N4CCCCC4)[nH]c3n2)c1Cl)c1c(O)c2nccnc2[nH]c1=O` [Example 49, N-(2-chloro-3-((2-(piperidin-1-yl)-3H-imidazo[4,5-b]pyridin-5-yl)thio)phenyl)-8-hydroxy-6-oxo-5,6-dihydropyrido[2,3-b]pyrazine-7-carboxamide] came in with an IC50 of 0.036 µM.

Compound `NCC1(O)CCN(c2cnc(Sc3cccc(NC(=O)c4c(O)nc5ccccn5c4=O)c3Cl)c(N)n2)CC1` [Example 10, N-(3-((3-amino-5-(4-(aminomethyl)-4-hydroxypiperidin-1-yl)pyrazin-2-yl)thio)-2-chlorophenyl)-2-hydroxy-4-oxo-4H-pyrido[1,2-a]pyrimidine-3-carboxamide] yielded an IC50 of 0.006 µM.

Compound `NCC1(F)CCN(c2cnc(Sc3cccc(NC(=O)c4c(O)nc5n(c4=O)CCCC5)c3Cl)c(N)n2)CC1` [Example 16, N-(3-((3-amino-5-(4-(aminomethyl)-4-fluoropiperidin-1-yl)pyrazin-2-yl)thio)-2-chlorophenyl)-2-hydroxy-4-oxo-6,7,8,9-tetrahydro-4H-pyrido[1,2-a]pyrimidine-3-carboxamide] registered an IC50 of 0.008 µM.

`Nc1nc(N2CCC3(CCC[C@H]3N)CC2)nnc1Sc1cccc(NC(=O)c2c(O)nc3n(c2=O)CCCC3)c1Cl` [Example 43, (R)-N-(3-((5-amino-3-(1-amino-8-azaspiro[4.5]decan-8-yl)-1,2,4-triazin-6-yl)thio)-2-chlorophenyl)-2-hydroxy-4-oxo-6,7,8,9-tetrahydro-4H-pyrido[1,2-a]pyrimidine-3-carboxamide] displayed an IC50 of 0.0015 µM. Consider `CC1(CN)CCN(c2nnc(Sc3cccc(NC(=O)c4c(O)nc5cnccn5c4=O)c3Cl)c(N)n2)CC1` [Example 34, N-(3-((5-amino-3-(4-(aminomethyl)-4-methylpiperidin-1-yl)-1,2,4-triazin-6-yl)thio)-2-chlorophenyl)-2-hydroxy-4-oxo-4H-pyrazino[1,2-a]pyrimidine-3-carboxamide], for which 0.014 µM corresponded to half-maximal inhibition (IC50). `Nc1nc(N2CCC3(CCC[C@H]3N)CC2)cnc1Sc1cccc(NC(=O)c2c(O)nc3n(c2=O)CCCC3)c1Cl` [Example 24, (R)-N-(3-((3-amino-5-(1-amino-8-azaspiro[4.5]decan-8-yl)pyrazin-2-yl)thio)-2-chlorophenyl)-2-hydroxy-4-oxo-6,7,8,9-tetrahydro-4H-pyrido[1,2-a]pyrimidine-3-carboxamide] came in with an IC50 of 0.001 µM. As for `CC1(CN)CCN(c2nnc(Sc3cccc(NC(=O)c4c(O)nc5n(c4=O)CCCC5)c3Cl)c(N)n2)CC1` [Example 36, N-(3-((5-amino-3-(4-(aminomethyl)-4-methylpiperidin-1-yl)-1,2,4-triazin-6-yl)thio)-2-chlorophenyl)-2-hydroxy-4-oxo-6,7,8,9-tetrahydro-4H-pyrido[1,2-a]pyrimidine-3-carboxamide], 0.012 µM corresponded to half-maximal inhibition (IC50).

In turn, `CC1(N)CCN(c2nc3ccc(Sc4cccc(NC(=O)C5=C(O)CN(c6ccccc6)C5=O)c4Cl)nc3[nH]2)CC1` [Example 47, N-(3-((2-(4-amino-4-methylpiperidin-1-yl)-3H-imidazo[4,5-b]pyridin-5-yl)thio)-2-chlorophenyl)-4-hydroxy-2-oxo-1-phenyl-2,5-dihydro-1H-pyrrole-3-carboxamide] registered a concentration for half-maximal inhibition (IC50) of 0.003 µM. In turn, `CC1(CN)CCN(c2cnc(Sc3cccc(NC(=O)c4c(O)nc5[nH]ccn5c4=O)c3Cl)c(N)n2)CC1` [Example 6, N-(3-((3-amino-5-(4-(aminomethyl)-4-methylpiperidin-1-yl)pyrazin-2-yl)thio)-2-chloropheny1)-7-hydroxy-5-oxo-1,5-dihydroimidazo[1,2-a]pyrimidine-6-carboxamide] registered an IC50 of 0.005 µM. On to `Nc1nc(N2CCC(N)(C(F)(F)F)CC2)cnc1Sc1cccc(NC(=O)c2c(O)nc3ccccn3c2=O)c1Cl` [Example 19, N-(3-((3-amino-5-(4-amino-4-(trifluoromethyl)piperidin-1-yl)pyrazin-2-yl)thio)-2-chlorophenyl)-2-hydroxy-4-oxo-4H-pyrido[1,2-a]pyrimidine-3-carboxamide], for which the IC50 came to 2.19 µM. As to `NCC1(O)CCN(c2cnc(Sc3cccc(NC(=O)c4c(O)nc5n(c4=O)CCCC5)c3Cl)c(N)n2)CC1` [Example 11, N-(3-((3-amino-5-(4-(aminomethyl)-4-hydroxypiperidin-1-yl)pyrazin-2-yl)thio)-2-chlorophenyl)-2-hydroxy-4-oxo-6,7,8,9-tetrahydro-4H-pyrido[1,2-a]pyrimidine-3-carboxamide], the IC50 stood at 0.012 µM.

As to `N#CC1(CN)CCN(c2cnc(Sc3cccc(NC(=O)c4c(O)nc5n(c4=O)CCCC5)c3Cl)c(N)n2)CC1` [Example 12, N-(3-((3-amino-5-(4-(aminomethyl)-4-cyanopiperidin-1-yl)pyrazin-2-yl)thio)-2-chlorophenyl)-2-hydroxy-4-oxo-6,7,8,9-tetrahydro-4H-pyrido[1,2-a]pyrimidine-3-carboxamide], 0.26 µM corresponded to half-maximal inhibition (IC50). For the compound `O=C(Nc1cccc(Sc2ccc3nc(N4CCCCC4)[nH]c3n2)c1Cl)c1c(O)nc2ccccn2c1=O` [Example 48, N-(2-chloro-3-((2-(piperidin-1-yl)-3H-imidazo[4,5-b]pyridin-5-yl)thio)phenyl)-2-hydroxy-4-oxo-4H-pyrido[1,2-a]pyrimidine-3-carboxamide], it took 0.061 µM to reach half-maximal inhibition (IC50). On to `CC1(N)CCN(c2nnc(Sc3cccc(NC(=O)c4c(O)nc5ccccn5c4=O)c3Cl)c(N)n2)CC1` [Example 41, N-(3-((5-amino-3-(4-amino-4-methylpiperidin-1-yl)-1,2,4-triazin-6-yl)thio)-2-chlorophenyl)-2-hydroxy-4-oxo-4H-pyrido[1,2-a]pyrimidine-3-carboxamide], for which the IC50 stood at 0.011 µM. For the compound `CC1(CN)CCN(c2nnc(Sc3cccc(NC(=O)c4c(O)nc5[nH]ccn5c4=O)c3Cl)c(N)n2)CC1` [Example 35, N-(3-((5-amino-3-(4-(aminomethyl)-4-methylpiperidin-1-yl)-1,2,4-triazin-6-yl)thio)-2-chlorophenyl)-7-hydroxy-5-oxo-1,5-dihydroimidazo[1,2-a]pyrimidine-6-carboxamide], the IC50 was determined as 0.035 µM. To `CC1(CN)CCN(c2cnc(Sc3cccc(NC(=O)c4c(O)nc5sccn5c4=O)c3Cl)c(N)n2)CC1` [Example 3, N-(3-((3-amino-5-(4-(aminomethyl)-4-methylpiperidin-1-yl)pyrazin-2-yl)thio)-2-chlorophenyl)-7-hydroxy-5-oxo-5H-thiazolo[3,2-a]pyrimidine-6-carboxamide] belongs 0.006 µM; to `C[C@@H]1CC2(CCN(c3cnc(Sc4cccc(NC(=O)c5c(O)nc6n(c5=O)CCCC6)c4Cl)c(N)n3)CC2)[C@H](N)[C@H]1F` [Example 30, N-(3-((3-amino-5-((1S,2S,3R)-1-amino-2-fluoro-3-methyl-8-azaspiro[4.5]decan-8-yl)pyrazin-2-yl)thio)-2-chlorophenyl)-2-hydroxy-4-oxo-6,7,8,9-tetrahydro-4H-pyrido[1,2-a]pyrimidine-3-carboxamide], 0.016 µM; to `CC1(CN)CCN(c2nnc(Sc3cccc(NC(=O)c4ccc5ccccn5c4=O)c3Cl)c(N)n2)CC1` [Example 40, N-(3-((5-amino-3-(4-(aminomethyl)-4-methylpiperidin-1-yl)-1,2,4-triazin-6-yl)thio)-2-chlorophenyl)-4-oxo-4H-quinolizine-3-carboxamide], 0.173 µM. `CCC1C(O)=C(C(=O)Nc2cccc(Sc3ncc(N4CCC(C)(N)CC4)nc3N)c2Cl)C(=O)N1C` (stereo not drawn) [Example 55, N-(3-((3-amino-5-(4-amino-4-methylpiperidin-1-yl)pyrazin-2-yl)thio)-2-chlorophenyl)-5-ethyl-4-hydroxy-1-methyl-2-oxo-2,5-dihydro-1H-pyrrole-3-carboxamide] registered an IC50 of 0.0028 µM.

In turn, `Nc1nc(N2CCC(C(N)C(F)(F)F)C2)cnc1Sc1cccc(NC(=O)c2c(O)nc3ccccn3c2=O)c1Cl` (stereo not drawn) [Example 18, N-(3-((3-amino-5-(3-(1-amino-2,2,2-trifluoroethyl)pyrrolidin-1-yl)pyrazin-2-yl)thio)-2-chlorophenyl)-2-hydroxy-4-oxo-4H-pyrido[1,2-a]pyrimidine-3-carboxamide] came in with an IC50 of 0.789 µM. The compound `CN1C(=O)C(C(=O)Nc2cccc(Sc3ccc4nc(N5CCCCC5)[nH]c4n3)c2Cl)=C(O)C1(C)C` [Example 65, N-(2-chloro-3-((2-(piperidin-1-yl)-3H-imidazo[4,5-b]pyridin-5-yl)thio)phenyl)-4-hydroxy-1,5,5-trimethyl-2-oxo-2,5-dihydro-1H-pyrrole-3-carboxamide] returned an IC50 of 0.042 µM. The compound `CC1(CN)CCN(c2cnc(Sc3cccc(NC(=O)c4c(O)nc5cnccn5c4=O)c3Cl)c(N)n2)CC1` [Example 5, N-(3-((3-amino-5-(4-(aminomethyl)-4-methylpiperidin-1-yl)pyrazin-2-yl)thio)-2-chlorophenyl)-2-hydroxy-4-oxo-4H-pyrazino[1,2-a]pyrimidine-3-carboxamide] showed an IC50 of 0.003 µM. Compound `Nc1nc(N2CCC3(CC2)COC[C@H]3N)cnc1Sc1cccc(NC(=O)c2c(O)nc3n(c2=O)CCCC3)c1Cl` [Example 26, (S)—N-(3-((3-Amino-5-(4-amino-2-oxa-8-azaspiro[4.5]decan-8-yl)pyrazin-2-yl)thio)-2-chlorophenyl)-2-hydroxy-4-oxo-6,7,8,9-tetrahydro-4H-pyrido[1,2-a]pyrimidine-3-carboxamide] displayed an IC50 of 0.018 µM. `Nc1nc(N2CCC3(CC2)CC(F)(F)C[C@H]3N)cnc1Sc1cccc(NC(=O)c2c(O)nc3n(c2=O)CCCC3)c1Cl` [Example 28, (R)-N-(3-((3-amino-5-(1-amino-3,3-difluoro-8-azaspiro[4.5]decan-8-yl)pyrazin-2-yl)thio)-2-chlorophenyl)-2-hydroxy-4-oxo-6,7,8,9-tetrahydro-4H-pyrido[1,2-a]pyrimidine-3-carboxamide] displayed an IC50 of 0.042 µM.
